# Data taken from patent publication US20260250337A1, “HYBRID ANTIMICROBIAL PEPTIDES” (UNIVERSIDADE FEDERAL DO ABC, priority 2023, published 2026).
# No end group written: not given here.
# How the values were obtained:
# bacterial strains = assay: Antimicrobial activity over the panel of strains; type: cell-based; conditions: range over strains tested
# Description: Initially, the antimicrobial activity was determined by liquid growth inhibition assays, as previously described by Pedron et al.^62. Briefly, Peptone Broth and Potato Dextrose Broth (Invitrogen) were used for antibacterial and antifungal assays, respectively. Two-fold serial dilutions of peptides (0.09-50 μmol L^−1) and microorganisms (Serratia marcescens ATCC 4112, Enterobacter cloacae β-12, Micrococcus luteus A270, Bacillus megaterium ATCC 10778, Bacillus subtilis ATCC 6633, Candida albicans MDM8, and Candida tropicalis IOC 4560) were incubated at 37° C. for 18 h (for bacteria) or 24 h (for fungi), and microbial growth was assessed by absorbance measurements at 595 nm. Experiments were performed in three biological repeats.
# (§1) Method. The minimal inhibitory concentration (MIC) against the ESKAPE pathogens was determined using the broth microdilution method^81, 82 in Luria-Bertani (LB) medium. The MIC value was defined as the lowest concentration of peptide at which no microbial growth was observed. A. baumannii ATCC19606, E. coli ATCC11775, E. coli AIC221, E. coli AIC222, K. pneumoniae ATCC13883, S. aureus ATCC12600 P. aeruginosa PAO1, and P. aeruginosa PA14 were incubated on agar plates, and after 24 h, three isolated colonies were inoculated to 5 mL of Luria-Bertani (LB) broth and maintained at 37° C. overnight with shaking. Peptides were then added to 96-well polystyrene microtiter plates at concentrations ranging from 0 to 128 μmol L^−1, and 5×10^5 CFU mL^−1 of each bacterium was inoculated in each well. The plates were incubated at 37° C. for 24 h. Bacterial growth was measured using a microplate reader at 610 nm. Three independent replicates were performed.
# P. aeruginosa = assay: MIC against P. aeruginosa; type: cell-based; conditions: strain not given
# Description: as §1
substance,measurement,setting,value
"ILGAILNVLKSLG-NH2 [PV, Ile-Leu-Gly-Ala-Ile-Leu-Asn-Val-Leu-Lys-Ser-Leu-Gly]",MIC range of the peptide over the strains,bacterial strains,3.1 to 64 µM
same,MIC against P. aeruginosa,P. aeruginosa,128 µM
